Structures can show the parent of a compound that is named as a salt. Where two headings read alike, the source gives them in different places.
What was measured:
[1] = biological target: T1, human dopamine D3 receptors (Homo sapiens, UniProt P35462); assay: Dopamine D3 receptor binding ([125I]-iodosulpride displacement)
T1 construct: expressed in transfected cells; membranes)
Method: The substance to be tested was either dissolved in methanol/Chremophor® (BASF-AG) or in dimethyl sulfoxide and then diluted with water to the desired concentration.
Each assay mixture was run in triplicate.
The incubation buffer contained 50 mM tris, 120 mM NaCl, 5 mM KCl, 2 mM CaCl2, 2 mM MgCl2 and 0.1% bovine serum albumin, 10 μM quinolone and 0.1% ascorbic acid (prepared fresh daily). The buffer was adjusted to pH 7.4 with HCl.
Measurement and Analysis:
After having been incubated at 25° C. for 60 minutes, the assay mixtures were filtered through a Wathman GF/B glass fiber filter under vacuum using a cell collecting device. The filters were transferred to scintillation viols using a filter transfer system. After 4 ml of Ultima Gold® (Packard) have been added, the samples were shaken for one hour and the radioactivity was then counted in a Beta-Counter (Packard, Tricarb 2000 or 2200CA). The cpm values were converted into dpm using a standard quench series and the program belonging to the instrument.
The inhibition curves were analyzed by means of iterative nonlinear regression analysis using the Statistical Analysis System (SAS) which is similar to the “LIGAND” program described by Munson and Rodbard.

[2] = biological target: T2, human dopamine D2L receptors (long isoform) (Homo sapiens, UniProt P14416); assay: Dopamine D2L receptor binding ([125I] iodospiperone), basis of selectivity Ki(D2)/Ki(D3); details: D2L vs D3
T2 construct: expressed in transfected cells; membranes)
Method: The substance to be tested was either dissolved in methanol/Chremophor® (BASF-AG) or in dimethyl sulfoxide and then diluted with water to the desired concentration. […] Each assay mixture was run in triplicate. The incubation buffer contained 50 mM tris, 120 mM NaCl, 5 mM KCl, 2 mM CaCl2, 2 mM MgCl2 and 0.1% bovine serum albumin. The buffer was adjusted to pH 7.4 with HCl. Measurement and Analysis: After having been incubated at 25° C. for 60 minutes, the assay mixtures were filtered through a Wathman GF/B glass fiber filter under vacuum using a cell collecting device. The filters were transferred to scintillation viols using a filter transfer system. After 4 ml of Ultima Gold® (Packard) have been added, the samples were shaken for one hour and the radioactivity was then counted in a Beta-Counter (Packard, Tricarb 2000 or 2200CA). The cpm values were converted into dpm using a standard quench series and the program belonging to the instrument. The inhibition curves were analyzed by means of iterative nonlinear regression analysis using the Statistical Analysis System (SAS) which is similar to the “LIGAND” program described by Munson and Rodbard.

[3] = Table 5, membranes of HEK-293 cells, read-out: Ki D3
[4] = Table 6, membranes of HEK-293 cells, read-out: ki D3
[5] = compounds II, read-out: Ki D3 values

T2 sequence (P14416 whole entry, canonical isoform): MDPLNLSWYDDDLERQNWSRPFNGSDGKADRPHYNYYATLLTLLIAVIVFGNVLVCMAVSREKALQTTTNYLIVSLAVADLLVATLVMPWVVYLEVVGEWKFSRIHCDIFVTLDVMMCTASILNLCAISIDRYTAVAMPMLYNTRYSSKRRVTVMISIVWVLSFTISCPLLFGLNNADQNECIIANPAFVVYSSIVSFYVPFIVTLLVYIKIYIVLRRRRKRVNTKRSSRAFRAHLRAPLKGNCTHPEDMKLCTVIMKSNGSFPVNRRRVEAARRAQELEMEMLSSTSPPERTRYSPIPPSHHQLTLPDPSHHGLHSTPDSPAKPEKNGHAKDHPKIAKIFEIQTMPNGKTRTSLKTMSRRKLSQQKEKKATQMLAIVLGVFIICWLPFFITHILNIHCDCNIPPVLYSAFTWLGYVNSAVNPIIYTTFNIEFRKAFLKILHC
T1 sequence (P35462 whole entry): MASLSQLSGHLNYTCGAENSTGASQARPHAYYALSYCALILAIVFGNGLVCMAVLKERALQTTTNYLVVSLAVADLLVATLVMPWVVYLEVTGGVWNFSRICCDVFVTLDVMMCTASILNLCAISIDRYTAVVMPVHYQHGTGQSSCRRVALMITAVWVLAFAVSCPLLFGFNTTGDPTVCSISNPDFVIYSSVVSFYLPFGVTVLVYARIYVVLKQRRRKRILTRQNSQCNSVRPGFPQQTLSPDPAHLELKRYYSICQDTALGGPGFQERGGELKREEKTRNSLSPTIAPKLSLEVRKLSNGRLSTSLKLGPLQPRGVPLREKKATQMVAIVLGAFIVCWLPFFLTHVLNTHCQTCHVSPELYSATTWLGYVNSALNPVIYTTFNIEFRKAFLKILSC

## Cn1cnnc1S(=O)(=O)CCCN1CCN(c2cc(C3CCC3)nc(C(C)(C)C)n2)CC1 [Example 2, 2-tert-Butyl-4-cyclobutyl-6-{4-[3-(4-methyl-4H-[1,2,4]triazole-3-sulfonyl)-propyl]-piperazin-1-yl}-pyrimidine]
[1]; [3]
  Ki: 52 nM
[2]; Table 5
  Selectivity [Ki(D2)/Ki(D3)]: 14

## Cn1cnnc1[S+]([O-])CCCN1CCN(c2cc(C3CCC3)nc(C(C)(C)C)n2)CC1 (centres unmarked) [Example 3, 2-tert-Butyl-4-cyclobutyl-6-{4-[3-(4-methyl-4H-[1,2,4]triazole-3-sulfinyl)-propyl]-piperazin-1-yl}-pyrimidine]
[1]; [3]
  Ki: 12 nM
[2]; Table 5
  Selectivity [Ki(D2)/Ki(D3)]: 44

## CCCc1cc(N2CCN(CCC[S+]([O-])c3nnc(CC)n3C)CC2)nc(C(C)(C)C)n1.Cl (centres unmarked) [Example 5, 2-tert-Butyl-4-{4-[3-(5-ethyl-4-methyl-4H-[1,2,4]triazole-3-sulfinyl)-propyl]-piperazin-1-yl}-6-propyl-pyrimidine hydrochloride]
[1]; [3]
  Ki: 38 nM
[2]; Table 5
  Selectivity [Ki(D2)/Ki(D3)]: 37

## Cc1nnc([S+]([O-])CCCN2CCN(c3cc(C4(C)CC4)nc(C(C)(C)C)n3)CC2)n1C (centres unmarked) [Example 6, 2-tert-Butyl-4-{4-[3-(4,5-dimethyl-4H-[1,2,4]triazole-3-sulfinyl)-propyl]-piperazin-1-yl}-6-(1-methyl-cyclopropyl)-pyrimidine]
[1]; [3]
  Ki: 28.7 nM
[2]; Table 5
  Selectivity [Ki(D2)/Ki(D3)]: 20

## CCCc1cc(N2CCN(CCC[S+]([O-])c3nnc(C)n3C)CC2)nc(C(C)(C)C)n1.Cl (centres unmarked) [Example 8, 2-tert-Butyl-4-{4-[3-(4,5-dimethyl-4H-[1,2,4]triazole-3-sulfinyl)-propyl]-piperazin-1-yl}-6-propyl-pyrimidine hydrochloride]
[1]; [3]
  Ki: 56 nM
[2]; Table 5
  Selectivity [Ki(D2)/Ki(D3)]: 33

## CCCc1cc(N2CCN(CCCS(=O)(=O)c3nnc(C)n3C)CC2)nc(C(C)(C)C)n1 [Example 9, 2-Di-tert-butyl-6-{4-[3-(4,5-dimethyl-4H-[1,2,4]triazole-3-sulfonyl)-propyl]-piperazin-1-yl}-6-propyl-pyrimidine]
[1]; [3]
  Ki: 18.3 nM
[2]; Table 5
  Selectivity [Ki(D2)/Ki(D3)]: 45

## Cc1nnc(S(=O)(=O)CCCN2CCN(c3cc(C4(C)CC4)nc(C(C)(C)C)n3)CC2)n1C [Example 10, 2-tert-Butyl-4-{4-[3-(4,5-dimethyl-4H-[1,2,4]triazole-3-sulfonyl)-propyl]-piperazin-1-yl}-6-(1-methyl-cyclopropyl)-pyrimidine]
[1]; [3]
  Ki: 7.8 nM
[2]; Table 5
  Selectivity [Ki(D2)/Ki(D3)]: 37

## CCCc1cc(N2CCN(CCCS(=O)(=O)c3nnc(CC)n3C)CC2)nc(C(C)(C)C)n1 [Example 12, 2-tert-Butyl-4-{4-[3-(5-ethyl-4-methyl-4H-[1,2,4]triazole-3-sulfonyl)-propyl]-piperazin-1-yl}-6-propyl-pyrimidine]
[1]; [3]
  Ki: 12.8 nM
[2]; Table 5
  Selectivity [Ki(D2)/Ki(D3)]: 55

## Cn1c(-c2ccc(F)cc2)nnc1[S+]([O-])CCCN1CCN(c2cc(C(F)(F)F)nc(C(C)(C)C)n2)CC1 (centres unmarked) [Example 15, 2-tert-Butyl-4-(4-{3-[5-(4-fluoro-phenyl)-4-methyl-4H[1,2,4]triazole-3-sulfinyl]-propyl}-piperazin-1-yl)-6-trifluoromethyl-pyrimidine]
[1]; [3]
  Ki: 12.6 nM
[2]; Table 5
  Selectivity [Ki(D2)/Ki(D3)]: 100

## Cl.Cn1c(-c2ccc(F)cc2)nnc1S(=O)(=O)CCCN1CCN(c2cc(C(F)(F)F)nc(C(C)(C)C)n2)CC1 [Example 16, 2-tert-Butyl-4-(4-{3-[5-(4-fluoro-phenyl)-4-methyl-4H-[1,2,4]triazole-3-sulfonyl]-propyl}-piperazin-1-yl)-6-trifluoromethyl-pyrimidine hydrochloride]
[1]; [3]
  Ki: 17.7 nM
[2]; Table 5
  Selectivity [Ki(D2)/Ki(D3)]: 56

## Cn1cnnc1S(=O)(=O)CCCN1CCN(c2cc(C(C)(C)C)nc(C(C)(C)C)n2)CC1 [Example 17, 2,4-Di-tert-butyl-6-{4-[3-(4-methyl-4H-[1,2,4]triazole-3-sulfonyl)-propyl]-piperazin-1-yl}-pyrimidine]
[1]; [4]
  Ki: 5.95 nM
[2]; Table 6
  Selectivity [Ki(D2)/Ki(D3)]: 53

## Cn1cnnc1[S+]([O-])CCCN1CCN(c2cc(C(C)(C)C)nc(C(C)(C)C)n2)CC1 (centres unmarked) [Example 18, 2,4-Di-tert-butyl-6-{4-[3-(4-methyl-4H-[1,2,4]triazole-3-sulfinyl)-propyl]-piperazin-1-yl}-pyrimidine]
[1]; [4]
  Ki: 25 nM
[2]; Table 6
  Selectivity [Ki(D2)/Ki(D3)]: 17

## Cl.Cn1cnc(S(=O)(=O)CCCN2CCN(c3cc(C(F)(F)F)nc(C(C)(C)C)n3)CC2)n1 [Example 19, 2-tert-Butyl-4-{4-[3-(1-methyl-1H-[1,2,4]triazole-3-sulfonyl)-propyl]-piperazin-1-yl}-6-trifluoromethyl-pyrimidine hydrochloride]
[1]; [4]
  Ki: 32 nM
[2]; Table 6
  Selectivity [Ki(D2)/Ki(D3)]: 17

## Cl.Cn1ncnc1S(=O)(=O)CCCN1CCN(c2cc(C(C)(C)C)nc(C(C)(C)C)n2)CC1 [Example 20, 2,4-Di-tert-butyl-6-{4-[3-(2-methyl-2H-[1,2,4]triazole-3-sulfonyl)-propyl]-piperazin-1-yl}-pyrimidine hydrochloride]
[1]; [4]
  Ki: 26.2 nM
[2]; Table 6
  Selectivity [Ki(D2)/Ki(D3)]: 8

## Cl.Cn1cnc([S+]([O-])CCCN2CCN(c3cc(C(F)(F)F)nc(C(C)(C)C)n3)CC2)n1 (centres unmarked) [Example 21, 2-tert-Butyl-4-{4-[3-(1-methyl-1H-[1,2,4]triazole-3-sulfinyl)-propyl]-piperazin-1-yl}-6-trifluoromethyl-pyrimidine hydrochloride]
[1]; [4]
  Ki: 16.6 nM
[2]; Table 6
  Selectivity [Ki(D2)/Ki(D3)]: 18

## CC(C)(C)c1cc(N2CCN(CCCS(=O)(=O)c3nc[nH]n3)CC2)nc(C(C)(C)C)n1 [Example 22, 2,4-Di-tert-butyl-6-{4-[3-(1H-[1,2,4]triazole-3-sulfonyl)-propyl]-piperazin-1-yl}-pyrimidine]
[1]; [4]
  Ki: 47.4 nM
[2]; Table 6
  Selectivity [Ki(D2)/Ki(D3)]: 19

## CC(C)c1cc(N2CCN(CCCS(=O)(=O)c3nncn3C)CC2)nc(C(C)(C)C)n1 [Example 23, 2-tert-Butyl-4-{4-[3-(4-methyl-1H-[1,2,4]triazole-3-sulfonyl)-propyl]-piperazin-1-yl}-6-isopropyl-pyrimidine]
[1]; [4]
  Ki: 59.8 nM
[2]; Table 6
  Selectivity [Ki(D2)/Ki(D3)]: 49

## Cn1c(SCCCN2CCN(c3cc(C(F)(F)F)nc(C(C)(C)C)n3)CC2)nnc1C1CCCC1 [c.3, 2-tert-Butyl-4-{4-[3-(4-methyl-5-cyclopentyl-4H-[1,2,4]triazol-3-ylsulfanyl)-propyl]-piperazin-1-yl}-6-trifluoromethyl-pyrimidine trifluoroacetate]
[1]; [5]
  Ki: < 5 nM

## Cn1c(SCCCN2CCN(c3cc(C(F)F)nc(C(C)(C)C)n3)CC2)nnc1C(F)(F)F [c.6, 2-tert-Butyl-4-{4-[3-(4-methyl-5-trifluoromethyl-4H-[1,2,4]triazol-3-ylsulfanyl)-propyl]-piperazin-1-yl}-6-difluoromethyl-pyrimidine hydrochloride]
[1]; [5]
  Ki: < 5 nM

## Cn1c(SCCCN2CCN(c3cc(C(F)F)nc(C(C)(C)C)n3)CC2)nnc1C1CCC1 [c.20, 2-tert-Butyl-4-{4-[3-(4-methyl-5-cyclobutyl-4H-[1,2,4]triazol-3-ylsulfanyl)-propyl]-piperazin-1-yl}-6-difluoromethyl-pyrimidine hydrochloride]
[1]; [5]
  Ki: < 5 nM

## Cn1c(SCCCN2CCN(c3cc(C(F)F)nc(C(C)(C)C)n3)CC2)nnc1C1CC1 [c.21, 2-tert-Butyl-4-{4-[3-(4-methyl-5-cyclopropyl-4H-[1,2,4]triazol-3-ylsulfanyl)-propyl]-piperazin-1-yl}-6-difluoromethyl-pyrimidine hydrochloride]
[1]; [5]
  Ki: < 5 nM

## Cn1c(SCCCN2CCN(c3cc(C(F)(F)F)nc(C(C)(C)C)n3)CC2)nnc1C(C)(C)C [c.27, 2-tert-Butyl-4-{4-[3-(4-methyl-5-tert-butyl-4H-[1,2,4]triazol-3-ylsulfanyl)-propyl]-piperazin-1-yl}-6-trifluoromethyl-pyrimidine]
[1]; [5]
  Ki: < 5 nM

## CCc1cc(N2CCN(CCCSc3nnc(C(F)(F)F)n3C)CC2)nc(C(C)(C)C)n1 [c.28, 2-tert-Butyl-4-{4-[3-(4-methyl-5-trifluoromethyl-4H-[1,2,4]triazol-3-ylsulfanyl)-propyl]-piperazin-1-yl}-6-ethyl-pyrimidine hydrochloride]
[1]; [5]
  Ki: < 5 nM

## CCc1nnc(SCCCN2CCN(c3cc(C(F)F)nc(C(C)(C)C)n3)CC2)n1C [c.29, 2-tert-Butyl-4-{4-[3-(4-methyl-5-ethyl-4H-[1,2,4]triazol-3-ylsulfanyl)-propyl]-piperazin-1-yl}-6-difluoromethyl-pyrimidine hydrochloride]
[1]; [5]
  Ki: < 5 nM

Reference: US8101754B2, “Triazole compounds suitable for treating disorders that respond to modulation of the dopamine D3 receptor” (Abbott GmbH & Co. KG, priority 2004, dated 2012)
